Measured values as given in ChEMBL document CHEMBL1156709, “Evaluation of ursolic acid isolated from Ilex paraguariensis and derivatives on aromatase inhibition” (Eur J Med Chem, 2008).

These compounds were tested against T1, Aromatase (Homo sapiens, UniProt P11511) (assay: Inhibition of aromatase).
T1 sequence (P11511 whole entry): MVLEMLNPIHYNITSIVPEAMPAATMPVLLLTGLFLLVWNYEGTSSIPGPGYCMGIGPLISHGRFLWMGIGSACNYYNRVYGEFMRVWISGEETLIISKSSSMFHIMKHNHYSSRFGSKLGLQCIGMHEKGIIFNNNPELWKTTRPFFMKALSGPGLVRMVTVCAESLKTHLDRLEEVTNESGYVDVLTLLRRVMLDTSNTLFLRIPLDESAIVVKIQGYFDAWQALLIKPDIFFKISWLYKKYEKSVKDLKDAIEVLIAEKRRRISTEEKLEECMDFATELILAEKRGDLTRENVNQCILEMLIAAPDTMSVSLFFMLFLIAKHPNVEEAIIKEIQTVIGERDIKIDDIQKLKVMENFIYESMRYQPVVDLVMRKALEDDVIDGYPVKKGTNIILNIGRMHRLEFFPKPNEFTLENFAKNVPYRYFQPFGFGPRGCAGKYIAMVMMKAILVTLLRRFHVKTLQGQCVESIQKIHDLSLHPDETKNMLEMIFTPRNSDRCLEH

SMILES	IC50 [µM]
CC(=O)O[C@H]1CC[C@]2(C)[C@H]3CC=C4[C@@H]5[C@@H](C)[C@H](C)CC[C@]5(C(=O)O)CC[C@@]4(C)[C@]3(C)CC[C@H]2C1(C)C [O-ACETYLURSOLIC ACID]	85.6
C[C@H]1[C@H](C)CC[C@]2(C(=O)O)CC[C@]3(C)C(=CC[C@@H]4[C@@]5(C)CC[C@H](O)C(C)(C)[C@@H]5CC[C@]43C)[C@H]12 [URSOLIC ACID]	30.7

The compounds below were run against T1, Aromatase (assay: Inhibition of aromatase at 40.7 uM).

SMILES	inhibition at 40.7 µM [%]
CC1(C)CC[C@]2(C(=O)O)CC[C@]3(C)C(=CC[C@@H]4[C@@]5(C)CC[C@H](O)C(C)(C)[C@@H]5CC[C@]43C)[C@@H]2C1 [OLEANOLIC_ACID]	12
C[C@H]1[C@H](C)CC[C@]2(C(=O)O)CC[C@]3(C)C(=CC[C@@H]4[C@@]5(C)CC[C@H](O)C(C)(C)[C@@H]5CC[C@]43C)[C@H]12 [URSOLIC ACID]	12

What follows are compounds tested against T1, Aromatase (assay: Inhibition of aromatase in human placental microsomes assessed as tritiated water release after 15 mins using [1-beta, 3H]androstenedione as substrate by scintillation counting).
Parameters: species or system Placenta

SMILES	IC50 [µM]
C[C@H]1[C@H](C)CC[C@]2(C(=O)NCCCN3CCN(CCCN)CC3)CC[C@]3(C)C(=CC[C@@H]4[C@@]5(C)CC[C@H](O)C(C)(C)[C@@H]5CC[C@]43C)[C@H]12	< 500
CC(=O)O[C@H]1CC[C@]2(C)[C@H]3CC=C4[C@@H]5[C@@H](C)[C@H](C)CC[C@]5(C(=O)NCCCN5CCN(CCCN)CC5)CC[C@@]4(C)[C@]3(C)CC[C@H]2C1(C)C	< 500
C[C@H]1[C@H](C)CC[C@]2(C(=O)O)CC[C@]3(C)C(=CC[C@@H]4[C@@]5(C)CCC(=O)NC(C)(C)[C@@H]5CC[C@]43C)[C@H]12	> 500
C=C(C)[C@@H]1CC[C@]2(C)[C@H](CC=C3[C@@H]4[C@@H](C)[C@H](C)CC[C@]4(C(=O)O)CC[C@]32C)[C@@]1(C)CCC#N	> 500
C[C@H]1[C@H](C)CC[C@]2(C(=O)O)CC[C@]3(C)C(=CC[C@@H]4[C@@]5(C)CC/C(=N\O)C(C)(C)[C@@H]5CC[C@]43C)[C@H]12	> 500
C[C@]12CCC(=O)C(O)=C1CC[C@@H]1[C@@H]2CC[C@]2(C)C(=O)CC[C@@H]12 [FORMESTANE]	0.8
C[C@H]1[C@H](C)CC[C@]2(C(=O)O)CC[C@]3(C)C(=CC[C@@H]4[C@@]5(C)CC[C@H](O)C(C)(C)[C@@H]5CC[C@]43C)[C@H]12 [URSOLIC ACID]	32
C[C@H]1[C@H](C)CC[C@]2(C(=O)O)CC[C@]3(C)C(=CC[C@@H]4[C@@]5(C)CCC(=O)C(C)(C)[C@@H]5CC[C@]43C)[C@H]12 [URSONIC ACID]	> 500
